Test results from PubChem BioAssay AID342 (DTP/NCI, 2004).
Values joined by “and” are separate entries in the source; they are usually repeats but may differ in a detail not shown here. Equal values may be shown once.

Tested on: Swiss mice, Sarcoma 180 sc, mean tumor weight T/C
Experiment: NCI In Vivo Anticancer Drug Screen. Data for tumor model Sarcoma 180 (subcutaneous) in Swiss mice
Details: endpoint: mean tumor weight, higher = larger tumour
Method in brief: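 Tumor-bearing mice, transplantable tumor; readout survival or tumor size; result = T/C, treated vs vehicle control.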

[1] = dose: 50.0 mg/kg/injection, schedule: Q01DX007 (ip), vehicle: water
[2] = dose: 100.0 mg/kg/injection, schedule: Q01DX007 (ip), vehicle: water

In the case of `CC1(C)N=C(N)N=C(N)N1c1cccc(Cl)c1`, the T/C (dose: 3.97 mg/kg/injection, schedule: Q01DX007 (ip), vehicle: carboxymethylcellulose (CMC)) is reported as 83 % of control, the T/C (dose: 6.95 mg/kg/injection, schedule: Q01DX007 (ip), vehicle: carboxymethylcellulose (CMC)) is reported as 85 % of control and the T/C (dose: 13.9 mg/kg/injection, schedule: Q01DX007 (ip), vehicle: carboxymethylcellulose (CMC)) is reported as 68 % of control. For the same compound, the T/C (dose: 27.8 mg/kg/injection, schedule: Q01DX007 (ip), vehicle: carboxymethylcellulose (CMC)) was 74 % of control.
In the case of `Cc1ccc(NCC2(/N=C/c3ccccc3)OC(CO)C(O)C2O)cc1` (stereo unspecified), the T/C (dose: 111.0 mg/kg/injection, schedule: Q#A X014 (ip), vehicle: methylcellulose (MC)) is reported as 71 % of control and 72 % of control and the T/C (dose: 250.0 mg/kg/injection, schedule: Q#A X014 (ip), vehicle: methylcellulose (MC)) is reported as 67 % of control and 90 % of control.
For `Cc1ccc(NC(C(=O)c2ccccc2)c2ccccc2)cc1` (stereo unspecified), the T/C (dose: 150.0 mg/kg/injection, schedule: Q01DX007 (ip), vehicle: saline) was 39 % of control and the T/C (dose: 225.0 mg/kg/injection, schedule: Q01DX007 (ip), vehicle: saline) was 20 % of control.
In the case of `CC(C)=CCC1=C(O)c2ccccc2C(=O)C1=O`, the T/C (dose: 30.0 mg/kg/injection, schedule: Q01DX007 (ip), vehicle: water) is reported as 96 % of control, the T/C [1] is reported as 97 % of control and the T/C (dose: 67.0 mg/kg/injection, schedule: Q01DX007 (ip), vehicle: other) is reported as 68 % of control. The T/C (dose: 100.0 mg/kg/injection, schedule: Q01DX007 (ip), vehicle: other) was 90 % of control, the T/C [2] was 91 % of control and 107 % of control and the T/C (dose: 100.0 mg/kg/injection, schedule: Q#A X014 (oral), vehicle: other) was 70 % of control. The T/C (dose: 150.0 mg/kg/injection, schedule: Q01DX007 (ip), vehicle: other) was 73 % of control, the T/C (dose: 150.0 mg/kg/injection, schedule: Q#A X014 (oral), vehicle: other) was 46 % of control and the T/C (dose: 200.0 mg/kg/injection, schedule: Q#A X014 (oral), vehicle: other) was 42 % of control.
With `O=C(NCCCCCCCCCCNC(=O)N1CC1)N1CC1` the T/C (dose: 0.9 mg/kg/injection, schedule: Q01DX007 (ip), vehicle: carboxymethylcellulose (CMC)) was 66 % of control and 83 % of control, the T/C (dose: 0.9 mg/kg/injection, schedule: Q01DX007 (ip), vehicle: saline) was 70 % of control and the T/C (dose: 1.3 mg/kg/injection, schedule: Q01DX007 (ip), vehicle: carboxymethylcellulose (CMC)) was 64 % of control and 65 % of control. For the same compound, the T/C (dose: 1.3 mg/kg/injection, schedule: Q01DX007 (ip), vehicle: saline) was 67 % of control, the T/C (dose: 2.0 mg/kg/injection, schedule: Q01DX007 (ip), vehicle: carboxymethylcellulose (CMC)) was 35 % of control and 43 % of control and the T/C (dose: 2.0 mg/kg/injection, schedule: Q01DX007 (ip), vehicle: saline) was 48 % of control. For the same compound, the T/C (dose: 3.0 mg/kg/injection, schedule: Q01DX007 (ip), vehicle: carboxymethylcellulose (CMC)) was 10 % of control and 21 % of control, the T/C (dose: 3.0 mg/kg/injection, schedule: Q01DX007 (ip), vehicle: saline) was 34 % of control and the T/C (dose: 4.0 mg/kg/injection, schedule: Q01DX007 (ip), vehicle: carboxymethylcellulose (CMC)) was 38 % of control.
`CO[C@H](C(=O)[C@@H](O)[C@@H](C)O)[C@@H]1Cc2cc3cc(OC4CC(OC5CC(O)C(O)C(C)O5)C(O)C(C)O4)c(C)c(O)c3c(O)c2C(=O)[C@H]1OC1CC(OC2CC(OC3CC(C)(O)C(O)C(C)O3)C(O)C(C)O2)C(O)C(C)O1` (stereo partly specified) was tested, and the T/C (dose: 0.25 mg/kg/injection, schedule: Q01DX007 (ip), vehicle: water) was 72 % of control, the T/C (dose: 0.3 mg/kg/injection, schedule: Q01DX007 (ip), vehicle: water) was 50 % of control and the T/C (dose: 0.3 mg/kg/injection, schedule: Q02DX004 (ip), vehicle: water) was 74 % of control. The T/C (dose: 0.45 mg/kg/injection, schedule: Q01DX007 (ip), vehicle: water) was 45 % of control, the T/C (dose: 0.45 mg/kg/injection, schedule: Q02DX004 (ip), vehicle: water) was 80 % of control and the T/C (dose: 0.5 mg/kg/injection, schedule: Q01DX007 (ip), vehicle: water) was 57 % of control. For the same compound, the T/C (dose: 0.6 mg/kg/injection, schedule: Q02DX004 (ip), vehicle: water) was 47 % of control, the T/C (dose: 1.0 mg/kg/injection, schedule: Q01DX007 (ip), vehicle: water) was 102 % of control and the T/C (dose: 1.0 mg/kg/injection, schedule: Q02DX004 (ip), vehicle: water) was 80 % of control. For the same compound, the T/C (dose: 2.0 mg/kg/injection, schedule: Q01DX007 (ip), vehicle: water) was 72 % of control, the T/C (dose: 2.0 mg/kg/injection, schedule: Q02DX004 (ip), vehicle: water) was 67 % of control and the T/C (dose: 3.0 mg/kg/injection, schedule: Q02DX004 (ip), vehicle: water) was 50 % of control. The T/C (dose: 4.0 mg/kg/injection, schedule: Q02DX004 (ip), vehicle: water) was 60 % of control and the T/C (dose: 5.0 mg/kg/injection, schedule: Q02DX004 (ip), vehicle: water) was 50 % of control.
In the case of `CC1=NCCc2c1cc1c([nH]c3ccccc31)c2C`, the T/C (dose: 25.0 mg/kg/injection, schedule: Q01DX007 (ip), vehicle: water) is reported as 108 % of control, the T/C [1] is reported as 91 % of control and the T/C [2] is reported as 72 % of control. For the same compound, the T/C (dose: 200.0 mg/kg/injection, schedule: Q01DX007 (ip), vehicle: water) was 28 % of control.
With `CCCCSc1nc(N)nc2nc[nH]c12` the T/C (dose: 18.75 mg/kg/injection, schedule: Q#A X014 (ip), vehicle: methylcellulose (MC)) was 89 % of control, the T/C (dose: 37.5 mg/kg/injection, schedule: Q#A X014 (ip), vehicle: methylcellulose (MC)) was 78 % of control and the T/C (dose: 75.0 mg/kg/injection, schedule: Q#A X014 (ip), vehicle: methylcellulose (MC)) was 102 % of control. The T/C (dose: 150.0 mg/kg/injection, schedule: Q#A X014 (ip), vehicle: methylcellulose (MC)) was 59 % of control.
`C=CCn1cnc2c(=S)nc[nH]c21` was tested, and the T/C (dose: 31.0 mg/kg/injection, schedule: Q01DX007 (ip), vehicle: carboxymethylcellulose (CMC)) was 86 % of control and the T/C (dose: 62.0 mg/kg/injection, schedule: Q01DX007 (ip), vehicle: carboxymethylcellulose (CMC)) was 54 % of control.
With `CCC(CC)C(O)CCCN(C)C` (stereo unspecified) the T/C (dose: 100.0 mg/kg/injection, schedule: Q01DX007 (ip), vehicle: saline) was 103 % of control, the T/C (dose: 200.0 mg/kg/injection, schedule: Q01DX007 (ip), vehicle: saline) was 95 % of control and the T/C (dose: 400.0 mg/kg/injection, schedule: Q01DX007 (ip), vehicle: saline) was 75 % of control.
With `CCOC(=O)Nc1ccc2c(c1)/C(=N\NC(N)=S)c1ccccc1-2` the T/C (dose: 5.0 mg/kg/injection, schedule: Q01DX007 (ip), vehicle: carboxymethylcellulose (CMC)) was 86 % of control, the T/C (dose: 15.0 mg/kg/injection, schedule: Q01DX007 (ip), vehicle: carboxymethylcellulose (CMC)) was 44 % of control and the T/C (dose: 30.0 mg/kg/injection, schedule: Q01DX007 (ip), vehicle: carboxymethylcellulose (CMC)) was 55 % of control. For the same compound, the T/C (dose: 49.0 mg/kg/injection, schedule: Q01DX007 (ip), vehicle: carboxymethylcellulose (CMC)) was 85 % of control, the T/C (dose: 60.0 mg/kg/injection, schedule: Q01DX007 (ip), vehicle: carboxymethylcellulose (CMC)) was 63 % of control and the T/C (dose: 73.0 mg/kg/injection, schedule: Q01DX007 (ip), vehicle: carboxymethylcellulose (CMC)) was 63 % of control. The T/C (dose: 110.0 mg/kg/injection, schedule: Q01DX007 (ip), vehicle: carboxymethylcellulose (CMC)) was 112 % of control.
For `CCSc1nc(Cl)cc(Sc2nc(N)nc3nc[nH]c23)n1`, the T/C (dose: 9.0 mg/kg/injection, schedule: Q01DX007 (ip), vehicle: other) was 75 % of control, the T/C (dose: 18.0 mg/kg/injection, schedule: Q01DX007 (ip), vehicle: methylcellulose (MC)) was 91 % of control and the T/C (dose: 18.0 mg/kg/injection, schedule: Q01DX007 (ip), vehicle: other) was 116 % of control. For the same compound, the T/C (dose: 36.0 mg/kg/injection, schedule: Q01DX007 (ip), vehicle: methylcellulose (MC)) was 95 % of control, the T/C (dose: 72.0 mg/kg/injection, schedule: Q01DX007 (ip), vehicle: methylcellulose (MC)) was 76 % of control and the T/C (dose: 72.0 mg/kg/injection, schedule: Q01DX007 (ip), vehicle: other) was 32 % of control. For the same compound, the T/C (dose: 124.0 mg/kg/injection, schedule: Q01DX007 (ip), vehicle: carboxymethylcellulose (CMC)) was 73 % of control, the T/C (dose: 144.0 mg/kg/injection, schedule: Q01DX007 (ip), vehicle: methylcellulose (MC)) was 44 % of control and 57 % of control and the T/C (dose: 188.0 mg/kg/injection, schedule: Q01DX007 (ip), vehicle: carboxymethylcellulose (CMC)) was 44 % of control. For the same compound, the T/C (dose: 277.0 mg/kg/injection, schedule: Q01DX007 (ip), vehicle: carboxymethylcellulose (CMC)) was 47 % of control, the T/C (dose: 281.0 mg/kg/injection, schedule: Q01DX007 (ip), vehicle: carboxymethylcellulose (CMC)) was 76 % of control and the T/C (dose: 288.0 mg/kg/injection, schedule: Q01DX007 (ip), vehicle: methylcellulose (MC)) was 52 % of control and 61 % of control. The T/C (dose: 422.0 mg/kg/injection, schedule: Q01DX007 (ip), vehicle: carboxymethylcellulose (CMC)) was 35 % of control and 40 % of control, the T/C (dose: 435.0 mg/kg/injection, schedule: Q01DX007 (ip), vehicle: methylcellulose (MC)) was 100 % of control and the T/C (dose: 630.0 mg/kg/injection, schedule: Q01DX007 (ip), vehicle: carboxymethylcellulose (CMC)) was 37 % of control. For the same compound, the T/C (dose: 945.0 mg/kg/injection, schedule: Q01DX007 (ip), vehicle: carboxymethylcellulose (CMC)) was 47 % of control.
